{
  "source": "paper PMC6061696",
  "about": "(2018)",
  "key": {"[1]": {"tested_on": "neomycin sensing riboswitch (NSR), wild-type (U14) (RNA, riboswitch) GGCUGCUUGUCCUUUAAUGGUCCAGUC", "experiment": "1H NMR imino spectra", "conditions": "no added monovalent ions; complex also in K+ buffers; 50 mM BisTris pH 6.3, 10 °C; ligand in slight excess; U10, U21 signals remain at 40 °C"}, "[2]": {"tested_on": "NSR U14C mutant (C14+) (RNA, riboswitch, C14 protonated at N3 in the folded complex (transcribed as ordinary C)) GGCUGCUUGUCCUCUAAUGGUCCAGUC", "experiment": "1H NMR imino spectra", "conditions": "no added monovalent ions; complex also in K+ buffers; 50 mM BisTris pH 6.3, 10 °C; ligand in slight excess"}},
  "data": [
    {"smiles": "NC[C@H]1O[C@H](O[C@H]2[C@H](O[C@@H]3O[C@H](CO)[C@@H](O)[C@H]3O)[C@@H](O)[C@H](N)C[C@@H]2N)[C@H](N)[C@@H](O)[C@@H]1O", "values": [
      {"measurement": "binding", "setting": "[1]", "value": "yes"},
      {"measurement": "binding", "setting": "[2]", "value": "yes"}
    ]}
  ]
}
